Key:
HuTu-80 cells [1] = experiment: Mitochondrial membrane potential (JC-1); format: cell-based, human; conditions: 8 µM, control 18.7%
Description: Next, in order to identify whether the compound 9 induces apoptotic cell death by triggering mitochondrial dysfunction, we analyzed its effect on mitochondrial membrane potential (Δψm) in HuTu-80 cells by using fluorescent cationic JC-1 dye (Figure 2B).
The mitochondrial-specific cationic dye JC-1 (Molecular Probes, Invitrogen, Carlsbad, CA, USA) accumulating in the mitochondria by potential-dependent manner was used to detect the effect of compound 9 on ∆ψM. Briefly, HuTu-80 cells were seeded in 6-well plates at a density of 5 × 10^5 cells/well for 24 h. Then cells were treated by compound 9 at 8 µM for 6, 18 or 24 h, collected by trypsinization, washed with PBS, and JC-1 (5 µg/mL) was added to the cells. After 30 min of incubation at 37 °C, the cells were centrifuged, washed with PBS and analyzed using NovoCyte Flow Cytometer (ACEA Biosciences Inc.).

HuTu-80 cells [2] = experiment: Autophagy detection (MDC staining); format: cell-based, human; conditions: 8 µM, 24 h, versus control
Excerpt: It is known that bile acids can induce cell death independently of apoptosis by activation of autophagy. Autophagy is a regulated lysosome-dependent pathway involved in the degradation of damaged and obsolete intracellular components. During autophagy, these components are isolated by a bilayer membrane resulting in autophagosome formation. Autophagosomes than fuse with lysosomes that leads to enzymatic degradation of their contents. During prolonged and strong stress, cells can autophagocytize up to a half of their cytoplasm that leads to a collapse of cell functions and, as a result, cell death. Monodansylcadaverin (MDC) is an autofluorescent amine that specifically accumulates within autophagic vacuoles and, therefore, can be used as a marker of autophagy.
HuTu-80 cells were seeded in 6-well plates at a density of 5 × 10^5 cells per well and incubated for 24 h under standard conditions. Then the cells were treated by compound 9 at 8 µM for 24 h, collected by trypsinization, washed with PBS, suspended with 50 µM of MDC at 37 °C for 15 min and analyzed using NovoCyte Flow Cytometer (ACEA Biosciences Inc.). In order to evaluate the type of autophagy (cytoprotective or cytodestructive), HuTu-80 cells were seeded in 96-well plate at a density of 5 × 10^3 cells/well for 24 h followed by co-treatment with compound 9 at 8 µM and chloroquine, an autophagy inhibitor, at 50 µM for 24 h. […]

KB-3-1 cells = experiment: MTT cytotoxicity assay, KB-3-1; format: cell-based, human
Excerpt: (§1) According to our previous data and data published by other research groups, chemical transformations of bile acids can greatly improve their antitumor potential. Thus, as the first step of evaluation of the biological activities of our novel DCA derivatives we assessed their effects on tumor cell viability. The cytotoxicity of the compounds was investigated with respect to a panel of cultured cell lines, including human duodenal HuTu-80, hepatocellular HepG2, cervical KB-3-1 and lung A549 carcinomas as well as murine macrophage RAW264.7 and non-transformed human fibroblasts hFF3 by MTT assay.
(§2) Human duodenal carcinoma HuTu-80 cells, human hepatocellular carcinoma HepG2 cells, human cervical carcinoma KB-3-1 cells, human lung carcinoma A549 cells were obtained from the Russian Cell Culture Collection (Institute of Cytology, RAS, St. Petersburg, Russia). Non-transformed human fibroblasts hFF3 were kindly provided by Dr. Olga Koval (Institute of Chemical Biology and Fundamental Medicine, SB RAS, Novosibirsk, Russia). RAW264.7 macrophages were kindly provided by Prof. Dr. Dmitry Kuprash (Engelhardt Institute of Molecular Biology, RAS, Moscow, Russia). The cells were cultured in DMEM (Sigma-Aldrich Inc., St. Louis, MO, USA) supplemented with 10% (v/v) heat-inactivated fetal bovine serum (FBS) (BioloT, St. Petersburg, Russia), 100 U/mL penicillin (ICN Biomedicals Inc., Costa Mesa, CA, USA), 100 µg/mL streptomycin and 0.25 µg/mL amphotericin; additionally, in the case of RAW264.7 cells, concentration of glucose in the medium was increased up to 4.5 mg/mL. The cells were incubated at 37 °C in 5% CO2 and 95% air (hereafter referred to as standard conditions). DCA derivatives were dissolved in DMSO to yield stock solutions of 10 mmol/L and stored at −20 °C prior to use.
(§3) Cells were seeded in triplicate in 96-well plates at a density of 5 × 10^3 (HuTu-80, HepG2, KB-3-1, hFF3), 10^4 (A549) or 5 × 10^4 (RAW264.7) cells per well. Cells were incubated under standard conditions for 24 h and then they were treated with varying doses of investigated derivatives for subsequent 24 h. Then 10 µL of MTT solution (5 mg/mL) were added to each wells and cells were incubated for an additional 2 h under standard conditions. The crystals of formazan forming within live cells were solubilized with DMSO and the absorbance was measured in a Multiscan RC plate reader (Thermo LabSystems, Helsinki, Finland) at a test and reference wavelengths of 570 nm and 620 nm, respectively. […] To perform SAR analysis, hierarchical clustering of compounds based on their IC50 values was fulfilled with Euclidean distance by using the Morpheus tool (https://software.broadinstitute.org/morpheus/), a platform designed for visualization and analysis of data in a matrix format. Heatmap, containing compounds’ SI values, were constructed by using the Excel 2010 software (Microsoft, Redmond, WA, USA). In order to reveal whether ROS participate in the induction of cell death by compound 9, HuTu-80 cells cultured in 96-well plate were pretreated by NAC at 2 mM for 1 h. Thereafter, the medium was replaced by fresh medium with compound 9 at 8 µM and the cells were incubated with subsequent 24 h under standard conditions. After this time period, the curves of cytotoxicity of compound 9 in the presence or absence of NAC were compared.

HuTu-80 cells [3] = experiment: Cell cycle assay (PI, flow cytometry); format: cell-based, human; conditions: 8 µM
Description: To determine the effect of compound 9 on the cell cycle, HuTu-80 cells were seeded in 6-well plates at a density of 5 × 10^5 cells/well for 24 h. After incubation, cells were treated with compound 9 at 8 µM for 6, 18 or 24 h. Thereafter, cells were collected by trypsinization, washed with cold PBS and fixed in 70% ice-cold ethanol for 30 min at 4 °C. Fixed cells were pelleted, stained with PI (1 mg/mL) for 15 min at 37 °C in the dark and analyzed using NovoCyte Flow Cytometer (ACEA Biosciences Inc.). Ten thousand events were recorded for each sample.

HuTu-80 cells [4] = experiment: cells; format: cell-based
Excerpt: as §1, §2, §3

COC(=O)CC[C@@H](C)[C@H]1CC[C@H]2[C@@H]3CC[C@@H]4CC(O)(CNCCCO)CC[C@]4(C)[C@H]3CC(=O)[C@]12C (stereo partly drawn) [Compound 9, Methyl 3-hydroxy-3-((3-hydroxypropylamino)methyl)-12-oxo-5β-cholan-24-oate]
cells with collapsed membrane potential (Low MMP) (HuTu-80 cells [1]; 6 h): 38.2% | cells with collapsed membrane potential (Low MMP) (HuTu-80 cells [1]; 18 h): 68.6% | cells with collapsed membrane potential (Low MMP) (HuTu-80 cells [1]; 24 h): 78.8% | intensity of MDC-associated fluorescence (HuTu-80 cells [2]): significantly higher than in control | IC50 (KB-3-1 cells; Homo sapiens, KB 3-1, MTT, 24 h, read-out: IC50 KB3-1 (cervix)): 22.8 ± 1.8 µM | Selectivity index KB-3-1 (KB-3-1 cells; ratio IC50 hFF3 / IC50 KB-3-1): 1.4 | subG1 cell population (HuTu-80 cells [3]; 6 h): 7.4% | subG1 cell population (HuTu-80 cells [3]; 18 h): 30.0% | subG1 cell population (HuTu-80 cells [3]; 24 h): 41.1% | IC50 (HuTu-80 cells [4]; Homo sapiens, HuTu80, MTT, 24 h, read-out: IC50 HuTu-80 (duodenum)): 4 ± 0.5 µM | Selectivity index HuTu-80 (HuTu-80 cells [4]; ratio IC50 hFF3 / IC50 HuTu-80): 8.3
